Some test systems named below: HOP-92; SK-MEL-2; MDA-MB-231; KM12; COLO 205; EKVX; K562; 786-0; SF-268; OVCAR-8; SK-OV-3; SF-295; MDA-N; SK-MEL-28; NCI-H522; TK-10; SF-539; NCI/ADR-RES; MDA-MB-435; A549.
Common to all, as to assay: DTP human tumour cell line panel, 48 h

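Protocol summary: plate cells (96-well), add compound at 5 concentrations, incubate 48 h, interpolate endpoints linearly. GI50 = concentration required for 50% inhibition of growth.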 Active and inactive are the calls of the source. Rule as the data show it: active = GI50 up to about 1.1 µM and inactive = higher.

As a reminder, the GI50 is the concentration at which growth is held to half of that of the control.

Consider `N#CCc1nc(-c2cc3ccccc3oc2=O)cs1`, for which the GI50 with HOP-92 is 41.7 µM (inactive); in the experiment with SK-MEL-2, 25.4 µM (inactive); with MDA-MB-231, 79.3 µM (inactive); with KM12, 26.7 µM (inactive); with COLO 205 it was 67.3 µM (inactive); with EKVX, 41.4 µM (inactive). The GI50 with K562 is 45.8 µM (inactive); with 786-0 it was > 100 µM (inactive); in the experiment on SF-268 it was > 100 µM (inactive); in the experiment with OVCAR-8 it was 63.2 µM (inactive); with SK-OV-3 it was > 100 µM (inactive); with SF-295 it was 72.6 µM (inactive). Besides, the GI50 was 37.2 µM (inactive) in the experiment on MDA-N; 37.3 µM (inactive) in the experiment on SK-MEL-28; 15.9 µM (inactive) in the experiment with NCI-H522; > 100 µM (inactive) with TK-10; 83.9 µM (inactive) in the experiment on SF-539; 79.6 µM (inactive) in the experiment with NCI/ADR-RES. In addition, the values for the GI50 in the experiment with MDA-MB-435 and in the experiment on A549 were 44.6 µM (inactive) and > 100 µM (inactive), respectively.
For the compound `O=[N+]([O-])/C=C/c1cc2ccc3ccccc3c2[nH]1`, the GI50 was 1.76 µM (inactive) in the experiment on HOP-92; 0.796 µM (active) in the experiment on SK-MEL-2; 1.43 µM (inactive) in the experiment with MDA-MB-231; 1.83 µM (inactive) with KM12; 1.75 µM (inactive) with COLO 205; 2.76 µM (inactive) in the experiment on EKVX. Further, the GI50 was 1.8 µM (inactive) with K562; 1.36 µM (inactive) with 786-0; 1.77 µM (inactive) with SF-268; 2.28 µM (inactive) in the experiment with OVCAR-8; 4.07 µM (inactive) in the experiment on SK-OV-3; 2.4 µM (inactive) in the experiment with SF-295. Besides, the GI50 with MDA-N is 1.67 µM (inactive); with SK-MEL-28, 2.01 µM (inactive); with NCI-H522, 0.851 µM (active); in the experiment with TK-10 it was 1.58 µM (inactive); with SF-539, 1.86 µM (inactive); in the experiment with NCI/ADR-RES it was 2.42 µM (inactive). Also, the GI50 with MDA-MB-435 was 1.69 µM (inactive); in the experiment on A549, 2.16 µM (inactive).
As for `C/C(=N\Nc1nc2cc(C)ccc2s1)c1ccccn1`, the GI50 is 0.282 µM (active) in the experiment with HOP-92; 0.4 µM (active) in the experiment on SK-MEL-2; 0.233 µM (active) with MDA-MB-231; 0.794 µM (active) with KM12; 0.0518 µM (active) in the experiment with COLO 205; 0.143 µM (active) in the experiment on EKVX. Also, the GI50 is 0.0948 µM (active) with K562; 0.519 µM (active) with 786-0; 0.505 µM (active) in the experiment with SF-268; 0.18 µM (active) in the experiment on OVCAR-8; 0.49 µM (active) in the experiment on SK-OV-3; 1.15 µM (inactive) in the experiment on SF-295. For the same compound, the GI50 in the experiment with MDA-N is 1.68 µM (inactive); in the experiment on SK-MEL-28 it was 1.61 µM (inactive); in the experiment on NCI-H522, 0.148 µM (active); in the experiment with TK-10, 2.22 µM (inactive); with SF-539 it was 1.39 µM (inactive); in the experiment on NCI/ADR-RES, 0.261 µM (active). The GI50 was 0.982 µM (active) with MDA-MB-435 and 0.798 µM (active) with A549.
With `COC(=O)CCCC(=O)/C(=N\Nc1ccc(Cl)cc1)Nc1c(Cl)cccc1Cl`, the GI50 is 45 µM (inactive) in the experiment with HOP-92; 24.6 µM (inactive) in the experiment with SK-MEL-2; > 82.8 µM (inactive) in the experiment with MDA-MB-231; 32 µM (inactive) in the experiment on KM12; 22.7 µM (inactive) in the experiment with COLO 205; 51.8 µM (inactive) in the experiment on EKVX. For the same compound, the GI50 in the experiment on K562 was 48.1 µM (inactive); in the experiment on 786-0, 86.1 µM (inactive); with SF-268 it was > 89.7 µM (inactive); in the experiment with OVCAR-8, > 100 µM (inactive); with SK-OV-3, > 100 µM (inactive); with SF-295, 35.2 µM (inactive). Also, the GI50 is > 84.5 µM (inactive) with MDA-N; > 89.3 µM (inactive) with SK-MEL-28; 28.4 µM (inactive) with NCI-H522; > 74.1 µM (inactive) with TK-10; > 100 µM (inactive) in the experiment with SF-539; > 74.1 µM (inactive) with NCI/ADR-RES. The GI50 with MDA-MB-435 was 76.7 µM (inactive); in the experiment with A549, 24.3 µM (inactive).
For `CCOC(=O)C1(Cc2ccc(C)cc2)Cc2ccc(C)cc2C1=O` (stereo not given), the GI50 with HOP-92 was 14.6 µM (inactive); with SK-MEL-2, 14.6 µM (inactive); in the experiment on MDA-MB-231, 16.5 µM (inactive); in the experiment on KM12, 4.57 µM (inactive); with COLO 205 it was 11.7 µM (inactive); in the experiment with EKVX it was 36.7 µM (inactive). The GI50 is 1.88 µM (inactive) in the experiment on K562; 31.1 µM (inactive) with 786-0; 48.4 µM (inactive) in the experiment on SF-268; 27.2 µM (inactive) in the experiment on OVCAR-8; 24.4 µM (inactive) in the experiment with SK-OV-3; 15.4 µM (inactive) in the experiment with SF-295. The GI50 with MDA-N is 2.38 µM (inactive); in the experiment on SK-MEL-28 it was 20.2 µM (inactive); with NCI-H522 it was 6.34 µM (inactive); with TK-10, 23.5 µM (inactive); in the experiment on SF-539, 19.8 µM (inactive); in the experiment with NCI/ADR-RES, 5.01 µM (inactive). In addition, the GI50 in the experiment on MDA-MB-435 was 2.81 µM (inactive); in the experiment on A549, 20.9 µM (inactive).
In the case of `CC1=C(C(=O)OC(C)C)C(c2cccc([N+](=O)[O-])c2)C(C(=O)OC(CO[N+](=O)[O-])CO[N+](=O)[O-])=C(C)N1` (stereo not given), the GI50 in the experiment with HOP-92 was 1.78 µM (inactive); in the experiment on SK-MEL-2, 2.39 µM (inactive); with MDA-MB-231 it was 3.59 µM (inactive); with KM12 it was 3.3 µM (inactive); in the experiment with COLO 205, 2.93 µM (inactive); with EKVX, 4.37 µM (inactive). For the same compound, the GI50 in the experiment with K562 was 2.76 µM (inactive); in the experiment with 786-0 it was 3.56 µM (inactive); with SF-268, 2.26 µM (inactive); with OVCAR-8, 3.85 µM (inactive); with SK-OV-3 it was 7.01 µM (inactive); with SF-295 it was 0.501 µM (active). Moreover, the GI50 is 2.83 µM (inactive) in the experiment with MDA-N; 11.4 µM (inactive) in the experiment with SK-MEL-28; 1.85 µM (inactive) in the experiment on NCI-H522; 8.07 µM (inactive) in the experiment on TK-10; 3.01 µM (inactive) in the experiment with SF-539; 2.45 µM (inactive) in the experiment on NCI/ADR-RES. The GI50 is 3.15 µM (inactive) with MDA-MB-435 and 3.37 µM (inactive) in the experiment with A549.
Turning to `N#Cc1nc(-c2ccccc2C(=O)O)oc1N`, the GI50 in the experiment with HOP-92, with SK-MEL-2, in the experiment with MDA-MB-231, in the experiment with KM12, in the experiment on COLO 205 and in the experiment on EKVX was > 100 µM (inactive) in each case. In addition, the GI50 in the experiment with K562, in the experiment on 786-0, in the experiment with SF-268, with OVCAR-8, in the experiment with SK-OV-3 and in the experiment on SF-295 was > 100 µM (inactive) in each case. The GI50 with MDA-N, with SK-MEL-28, in the experiment with NCI-H522, in the experiment with TK-10, in the experiment on SF-539 and in the experiment with NCI/ADR-RES was > 100 µM (inactive) in each case. For the same compound, the GI50 with MDA-MB-435 and in the experiment on A549 was > 100 µM (inactive) each time.
Consider `COC(=O)[C@@H]1C[C@]2(CC=C(C)C)c3ccccc3N(S(=O)(=O)c3ccccc3)[C@@H]2N1C(=O)OC`, for which the GI50 with HOP-92 was 15.1 µM (inactive); in the experiment with SK-MEL-2, 5.96 µM (inactive); with MDA-MB-231 it was 20.4 µM (inactive); in the experiment with KM12 it was 19.7 µM (inactive); in the experiment on COLO 205, 28.2 µM (inactive); with EKVX, 3.83 µM (inactive). Besides, the GI50 in the experiment on K562 is 9.55 µM (inactive); with 786-0 it was 25.1 µM (inactive); with SF-268 it was 18 µM (inactive); in the experiment on OVCAR-8, 20.3 µM (inactive); in the experiment with SK-OV-3, 10.6 µM (inactive); in the experiment on SF-295, 24.3 µM (inactive). Further, the GI50 with MDA-N is 26.9 µM (inactive); in the experiment with SK-MEL-28, 47.1 µM (inactive); with NCI-H522, 10.3 µM (inactive); in the experiment on TK-10, 32 µM (inactive); with SF-539, 24.8 µM (inactive); with NCI/ADR-RES, 10.4 µM (inactive). The GI50 in the experiment with MDA-MB-435 was 10.4 µM (inactive); in the experiment on A549, 11.6 µM (inactive).
`Oc1ccc(CNCc2ccccc2)c2cccnc12`: the GI50 is 0.177 µM (active) in the experiment with HOP-92; 0.264 µM (active) in the experiment on SK-MEL-2; 0.36 µM (active) in the experiment on MDA-MB-231; 0.448 µM (active) in the experiment with KM12; 2.65 µM (inactive) in the experiment on COLO 205; 0.495 µM (active) in the experiment with EKVX. Also, the GI50 is 0.138 µM (active) in the experiment with K562; 0.383 µM (active) in the experiment on 786-0; 0.24 µM (active) in the experiment on SF-268; 0.107 µM (active) with OVCAR-8; 0.542 µM (active) with SK-OV-3; 0.144 µM (active) in the experiment on SF-295. For the same compound, the GI50 in the experiment on MDA-N is 0.0762 µM (active); with SK-MEL-28, 0.424 µM (active); in the experiment on NCI-H522 it was 0.222 µM (active); in the experiment on TK-10, 0.282 µM (active); in the experiment on SF-539 it was 0.34 µM (active); in the experiment on NCI/ADR-RES, 0.959 µM (active). Besides, the GI50 in the experiment with MDA-MB-435 was 0.0841 µM (active); with A549 it was 0.0875 µM (active).
In the case of `O=C(NC1=C(Cl)C(=O)c2ccccc2C1=O)C(=O)c1c(O)c2ccccc2oc1=O`, the GI50 in the experiment on HOP-92 is 12.4 µM (inactive); in the experiment on SK-MEL-2 it was 2.32 µM (inactive); in the experiment on MDA-MB-231, 3.48 µM (inactive); in the experiment with KM12, 4.55 µM (inactive); in the experiment on COLO 205, 5.87 µM (inactive); in the experiment on EKVX, 9.42 µM (inactive). The GI50 with K562 is 5.15 µM (inactive); with 786-0, 6.24 µM (inactive); in the experiment on SF-268 it was 5.62 µM (inactive); in the experiment on OVCAR-8, 3.44 µM (inactive); in the experiment with SK-OV-3, 12.6 µM (inactive); in the experiment with SF-295 it was 2.46 µM (inactive). The GI50 is 1.37 µM (inactive) in the experiment on MDA-N; 2.39 µM (inactive) with SK-MEL-28; 3.69 µM (inactive) in the experiment with NCI-H522; 17.5 µM (inactive) with TK-10; 2.8 µM (inactive) in the experiment on SF-539; 3.13 µM (inactive) in the experiment on NCI/ADR-RES. Besides, the GI50 was 1.39 µM (inactive) in the experiment with MDA-MB-435 and 2.33 µM (inactive) with A549.

(Values after ChEMBL document CHEMBL1201862, “PubChem BioAssay data set” (2004).)
